Assay results reported in patent publication US12522584B2, “3,4-dihydroisoquinoline compound and use thereof” (CSPC Zhongqi Pharmaceutical Technology (Shijiazhuang) Co., …, priority 2020, dated 2026).
Marks after values point to notes of the source that are not given here.

Columns and labels:
PRMT5 = PRMT5 (Homo sapiens (Human), UniProt O14744); assay: radiometric assay for PRMT5 based on FlashPlate technology; type: biochemical; details: PRMT5 5 nM, [3H]-SAM, 60 min at 25° C.; read-out: Enzymology (IC50)
Experimental: The radiometric assay for PRMT5 based on FlashPlate technology was adopted to determine IC50 of the test compound.
After dissolved in dimethyl sulfoxide respectively, the test compounds were added into an Echo Qualified 384-well plate and diluted to the desired concentrations. The diluted test compounds were transferred from the Echo Qualified 384-well plate to a 384-well reaction plate using an Echo 550 instrument, and dimethyl sulfoxide was transferred into both the control and blank wells. PRMT5 was added to 1×reaction buffer (including 10 mM Tris-HCl; pH 8.0; 0.01% Tween-20; 1 mM DTT) to form a 1.67×enzyme solution (at an enzyme concentration of 5 nM). A polypeptide substrate and [3H]-SAM were added to 1× reaction buffer to form a 2.5× substrate solution (the terminal concentrations of the substrates were 100 nM and 250 nM, respectively). At a volume of 15 μL/well, the 1.67× enzyme solution was added into wells of the 384-well reaction plate. In case of the blank wells, the enzyme solution was replaced with 15 μL of the 1× reaction buffer. The reaction plate was centrifuged at 1000 rpm for 1 min, and incubated at room temperature for 15 min. To each well of the 384-well reaction plate, 10 μL of the 2.5× substrate solution was added, centrifuged at 1000 rpm for 1 min, and reacted at 25° C. for 60 min. To each well of the 384-well reaction plate, 5 μL of reaction stop solution (which was […] cold SAM solution) was added to terminate the reaction. From each well of the test plate, 25 μL was measured and transferred to Flashplate and left at room temperature for 1 h. Thereafter, the Flashplate was washed with 0.1% Tween-20 solution three times. Readings were taken with MicroBeta 2. The data was converted into the inhibition rate data. Inhibition rate=(conversion ratecontrol well−conversion ratecompound well)/(conversion ratecontrol well−conversion rateblank well)×100%. The IC50curves were fitted using XLFit5.4.0.8. The fitting equation was as follows:Y=Bottom+(Top-Bottom)/(1+(IC50/X)^HillSlope).

[1] = tested on: human acute monocytic leukemia cell line MV4-11; assay: MV4-11 MTT cell growth inhibition; type: cell-based; details: 144 h, MV4-11 cells, MTT on Day 6
Experimental: The complete medium required for the culture of human acute monocytic leukemia cell line MV4-11 (Shanghai Cell Bank) for experiment was IMDM (Cat NO. 12440-053, gibco) supplemented with 10% FBS (Cat NO. SA311.02, cellmax). The cells were cultured in an incubator at 37° C. with 5% CO2. The experiment reagents included dimethyl sulfoxide (Tianjin Kemiou Chemical Reagent Co., Ltd.) and MTT (THIAZOLYL BLUE TETRAZOLIUM BROMIDE, CAS. NO. 298-93-1, VWR). The control compound GSK3326595 for experiment was homemade or commercially available. The test compound was encapsulated and stored at 4° C.
Dimethyl sulfoxide was used as a vehicle to fully dissolve the test compound, thereby formulating a stock solution at a concentration of 5×10^−2 mol/L. The stock solution was stored at −20° C. With the complete medium as diluent, the test compound was subjected to gradient dilution to afford dilutions at different concentrations for standby application. In a 96-well culture plate, the suspension of the human acute monocytic leukemia cell line MV4-11 in the complete medium, at a volume of 100 μL/well (2×10^3 cells/well), was added. Afterwards, the dilutions at different concentrations of the corresponding test compounds (100 μL/well) were added, respectively. Each of the test compounds was provided with 8 concentration gradients and three replicates were used for each concentration. The plates were incubated in an incubator at 37° C. with 5% CO2. On Day 6, the plate was treated with MTT (20 μL/well) and incubated for 4 h in an incubator at 37° C. with 5% CO2. The supernatant was discarded. Dimethyl sulfoxide (150 μL/well) was added and mixed well by shaking. The OD value at 550 nm was measured with a microplate reader. Wells containing only cell suspensions without the test compounds were control wells, and wells containing only complete media were blank wells. The cell growth inhibition rate was calculated according to the following equation: Inhibition rate=(OD valuecontrol well−OD valuesample well)/(OD valuecontrol well−OD valueblank well)×100%. According to the inhibition rate at each concentration, the half maximal inhibitory concentration IC50 value was calculated using the SPSS software. 2. Enzymatic Experiment

in vivo = details: male, SD, rat, po, 25 mg/kg
Experimental: SD rats (male, 180 g to 200 g, Beijing Vital River Laboratory Animal Technology Co., Ltd.) were administered with the test compounds (solvent: 2% DMSO+98% (0.2 g/mL) hydroxypropyl-β-cyclodextrin, dosing volume: 5 mL/kg) by gavage. Blood was collected from the orbits of the rats at different points in time (0.25, 0.5, 1, 2, 4, 8, 24 h) after administration. The collected whole blood was anticoagulated with heparin sodium and centrifuged at 3000 g to obtain rat plasma samples, and methanol was added thereto to precipitate proteins. The drug concentration in rat plasma after administration was determined by HIPLC-MS/MS method. A drug concentration-time curve was plotted and the pharmacokinetic parameters were calculated. Pharmacokinetic behaviors of the compounds after administration in rats were described by means of the parameter estimation of non-compartmental model based on statistical moment theory.

MV4-11 xenografts = assay: In vivo efficacy in MV4-11 subcutaneous xenograft model
Experimental: Experimental female NOD-SCID mice, SPF grade, 4 to 5 weeks, were purchased from Beijing Vital River Laboratory Animal Technology Co., Ltd. The mice were intraperitoneally injected with cyclophosphamide at a dose of 100 mg/kg one day before cell inoculation. The human acute monocytic leukemia cell line MV4-11 (1×10^7/0.1 ml/mouse) was subcutaneously inoculated into forelimb axilla of mice to establish a subcutaneous xenograft model. When the tumor volumes reached about 110 mm^3 (10 days after inoculation), the mice were equally grouped according to the tumor volume, with 5 mice in each group, i.e., vehicle group (2% DMSO+98% (0.2 g/mL) hydroxypropyl-β-cyclodextrin) and test drug groups. For the test drug groups, the dose of administration was 100 mg/kg, the dosing volume was 10 mL/kg, the dosing frequency was BID, the tumor diameters were measured twice per week, and the data was recorded. The mice were administered for 11 consecutive days. When the experiment ended, the tumors were dissected and weighed.

PRMT5, sequence (O14744 whole entry): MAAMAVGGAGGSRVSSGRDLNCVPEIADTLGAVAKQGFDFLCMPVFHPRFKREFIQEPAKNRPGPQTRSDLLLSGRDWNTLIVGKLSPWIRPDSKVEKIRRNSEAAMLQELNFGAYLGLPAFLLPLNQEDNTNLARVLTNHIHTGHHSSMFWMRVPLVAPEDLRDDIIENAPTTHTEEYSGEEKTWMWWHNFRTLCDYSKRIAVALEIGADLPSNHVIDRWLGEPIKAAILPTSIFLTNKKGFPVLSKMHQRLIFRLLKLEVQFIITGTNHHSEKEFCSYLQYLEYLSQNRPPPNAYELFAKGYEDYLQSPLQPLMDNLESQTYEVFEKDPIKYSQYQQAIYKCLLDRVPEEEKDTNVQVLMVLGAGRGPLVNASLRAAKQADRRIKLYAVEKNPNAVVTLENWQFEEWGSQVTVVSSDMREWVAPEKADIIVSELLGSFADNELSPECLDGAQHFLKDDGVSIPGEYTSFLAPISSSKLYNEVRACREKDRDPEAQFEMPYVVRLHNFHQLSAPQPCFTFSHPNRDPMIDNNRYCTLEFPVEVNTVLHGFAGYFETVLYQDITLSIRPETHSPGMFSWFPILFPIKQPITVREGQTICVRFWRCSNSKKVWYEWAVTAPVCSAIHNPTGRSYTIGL
PRMT5, sequence (Q9BQA1 whole entry partner): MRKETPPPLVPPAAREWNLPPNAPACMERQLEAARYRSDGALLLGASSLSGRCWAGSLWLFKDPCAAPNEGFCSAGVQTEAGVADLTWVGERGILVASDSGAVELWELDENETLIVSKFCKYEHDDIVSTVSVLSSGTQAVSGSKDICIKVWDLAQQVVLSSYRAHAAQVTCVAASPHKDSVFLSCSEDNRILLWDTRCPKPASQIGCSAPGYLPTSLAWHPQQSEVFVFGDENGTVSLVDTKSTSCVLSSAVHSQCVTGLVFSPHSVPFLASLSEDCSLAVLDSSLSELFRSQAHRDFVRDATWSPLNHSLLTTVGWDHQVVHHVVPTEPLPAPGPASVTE

CON=C(C)C(=O)N1CCC2(CC1)CC(Nc1cc(C(=O)NC[C@H](O)CN3CCc4ccccc4C3)ncn1)C2 [PR-13, (S)-N-(3-(3,4-dihydroisoquinolin-2(1H)-yl)-2-hydroxypropyl)-6-((7-(2-(methoxyimino)propanoyl)-7-azaspiro[3.5]nonan-2-yl)amino)pyrimidine-4-carboxamide]
IC50 (PRMT5): 16 nM
IC50 [1]: 1.53 nM
AUC(0-t) (in vivo): 840 ng·h/mL
Cmax (in vivo): 516 ng/mL
Tmax (in vivo): 50 min
d9 Tumor Volume (mm^3) (MV4-11 xenografts; 100 mg/kg BID, 9th day after administration): 69.7 ± 22.9***# mm^3
Tumor Weight (MV4-11 xenografts; 100 mg/kg BID, 11 days, tumors dissected at end): 0.0679 ± 0.0225 g
Tumor weight inhibition rate (%) (MV4-11 xenografts; 100 mg/kg BID, 11 days, versus vehicle group): 90.6%
d0 Tumor Volume (mm^3) (MV4-11 xenografts; d0, before grouping for administration (baseline)): 165.4 ± 30.2 mm^3
RTV (d9) (MV4-11 xenografts; relative tumor volume = d9/d0 tumor volume, 100 mg/kg BID): 0.4 ± 0.1
